Experimental data published in patent US20200338519A1, “METHOD FOR PREPARING LIPOSOME” (priority 2015, published 2020).

Assay: Solubility in water and aqueous medium
Format: physicochemical

moexitecan
Solubility in water and an aqueous medium: insoluble or almost insoluble
